Reference: patent publication US4576760A, “Hydroquinone sulfate derivatives and production thereof” (Takeda Chemical Industries, Ltd., priority 1983, dated 1986)

Legend:
cAMP phosphodiesterase = assay: Action of inhibiting cAMP phosphodiesterase (method of Butcher and Sutherland; inorganic phosphoric acid produced from cyclic AMP); assay type: biochemical; settings: phosphodiesterase from beef heart and 5'-nucleotidase
Protocol: In accordance with the method of Butcher and Sutherland [J. Biol. Chem., 237, 1244 (1962)], the action of inhibiting cAMP phosphodiesterase was determined.
**Amounts of inorganic phosphoric acid produced by decomposition of cycli
AMP with phosphodiesterase from beef heart and 5nucleotidase.

peroxidation of lipids = assay: Inhibition rate of peroxidation of lipids (method of Kornbrust and Mavis; malondialdehyde formed in homogenized rat livers with NADPH/Fe++); assay type: biochemical; settings: homogenized livers of rats
Protocol: In accordance with the method of Kornbrust and Mavis [Mol. Pharm., 17, 400 (1980)], inhibition rate of peroxidation of lipids was determined.
Note*: Homogenized livers of rats were incubated in the presence of
NADPH/Fe^++. The amounts of malondialdehyde formed due to the
peroxidation of lipids were compared.

## COc1c(O)c(C)c(CCCCCCCCCCO)c(OS(=O)(=O)O)c1OC [6-(10-hydroxydecyl)-2,3-dimethoxy-5-methylhydroquinone 1-sulfate]
cAMP phosphodiesterase; 1 × 10^-3 M
  Inhibition rate of phosphodiesterase: 89%
cAMP phosphodiesterase; 5 × 10^-4 M
  Inhibition rate of phosphodiesterase: 70%
Peroxidation of lipids; 1 × 10^-4 M
  Inhibition Rate of Peroxidation of Lipids: 59%
Peroxidation of lipids; 1 × 10^-5 M
  Inhibition Rate of Peroxidation of Lipids: 28%
